Like-named read-outs stand apart in the source and are kept apart here.
How the values were obtained:
[1] = target: TARh hairpin containing the HIV-1 Tat-binding UCU bulge; test: Fluorescence intensity binding to control TARh hairpin
From the text: To evaluate the specificity of subdomain IIB recognition, we measured binding to a control TARh hairpin containing the HIV-1 Tat-binding UCU bulge[23] (Fig. 1D). […] We further assessed specificity by duplicating the IIBh-23fl association experiments in the presence of a 10-fold molar excess of tRNA^Lys or a 26-base pair LTRd DNA duplex. The binding curves of the compounds were affected by the presence of competitive tRNA^Lys and to a lesser extent by LTRd (Figs. 4A, S4 and S5 and Tables 2 and S2).
(§1) These experiments measured association to IIBh-23fl or TARh-8fl RNA molecules labelled with fluorescein at extrahelical loop nucleotides U23 and U8, respectively (Fig. 1D), and were carried out under two different ionic conditions in a Victor X5 plate reader, using excitation and emission wavelengths of 485 and 520 nm, respectively. We also attempted to measure association to an alternative IIBh hairpin containing 2-aminopurine instead of adenine at unpaired loop IIB residue A19[21], but all terphenyls fluoresced at the excitation wavelength of this fluorophore. IIBh-23fl or TARh-8fl (at 100 nM concentration) was equilibrated for 5 minutes after each ligand addition in a buffer containing either 10 mM sodium phosphate pH 6.6 and 0.1 mM EDTA or 10 mM HEPES pH 7.5, 200 mM KCl and 2 mM MgCl2. In addition to the TARh specificity control, the RNA and DNA specificity of the IIBh interactions was assessed by duplicating the experiments in the presence of a 10-fold molar excess (1 μM) of either tRNA^Lys or DNA duplex LTRd. The equilibrium dissociation constants Kd were determined by fitting the fluorescence intensity curves with DYNAFIT[40]. We used one-site, two independent-sites and two interacting-sites binding models for all curves, and the best model was automatically selected by model discrimination analysis, except where indicated. The final graphs were plotted with Prism. All fluorescence intensity experiments were performed at least two times for each compound and condition.

HIV-1 = test: Cellular HIV-1 infection assay (NL4.3-Ren, MT-2 cells); assay type: cell-based; details: Human immunodeficiency virus 1, MT2, 48 h post-infection
Procedure: (§2) The methodology used to perform and analyse these experiments has been reported elsewhere[7],[21],[22]. Briefly, infectious supernatants were obtained from transfection of plasmid pNL4.3-Ren on 293 T cells, MT-2 cells were infected with these supernatants in the presence of the compounds, and anti-HIV activity quantification was performed 48 h post-infection by determining luciferase activity in cell lysates compared to a non-treated control (100%). Cellular viability was evaluated in mock infected cells similarly treated with the same concentrations of compounds using the CellTiterGlo (Promega) assay.

high-order RRE-Rev = test: EMSA of full-length RRE-Rev ribonucleoprotein formation; assay type: binding, HIV-1; details: 78 nM RRE, 1.32 μM Rev, 300 mM KCl, 1 mM MgCl2, band of high-order complexes
From the text: After the high-affinity interaction between RRE subdomain IIB and the Rev34–50 helix of the first Rev monomer is established, the RRE-Rev ribonucleoprotein is formed by the incorporation of additional Rev units binding to further sites in the RRE (Fig. 3B, right)[9],[10],[13]. Using an electrophoretic mobility shift assay (EMSA) involving full-length RRE and Rev, we also evaluated whether 1,4-terphenyl compounds were capable of interfering with the formation of the ribonucleoprotein. […] The effect was particularly prominent for high-order complexes (containing a greater number of Rev monomers), but the inhibition of low-order complexes by 1d was also detected at concentrations consistent with the IC50 value measured in the IIB-Rev34–50 displacement experiment. Compounds 1b and 3c exerted a weaker effect on the RRE-Rev complex, in agreement with the results obtained in the displacement experiments monitored by fluorescence anisotropy (Fig. 3B and Table 1).
(§3) The experiments monitoring RRE-Rev inhibition utilized 78 nM full-length RRE and 1.32 μM full-length Rev dissolved in 10 mM HEPES pH 7.5, 300 mM KCl, 1 mM MgCl2 and 0.5 mM EDTA binding buffer, and increasing concentrations of each compound up to 50 μM[21],[39]. The reactions were incubated at room temperature for 20 minutes and loaded onto 8% polyacrylamide gels with TB running buffer. Gels were run at 4 °C for 1–4 hours at 150 V, and the bands were stained with SYBR gold and quantified with Quantity One 4.1 analysis software. Experiments monitoring binding to the 58-base pair HIV-1 LTRc core segment utilized 20 nM LTRc duplex dissolved in the same binding buffer, and increasing concentrations of each compound. The reactions were similarly incubated and loaded onto 20% polyacrylamide gels with TB running buffer. The gels were run at 4 °C for 3.5 hours at 150 V, and the bands were stained and quantified as described above. The specificity of LTRc association was evaluated by duplicating the experiments in the presence of a 100-fold molar excess of DNAd duplex (28-fold base-pair molar excess). In all cases, we monitored the disappearance of the band corresponding to high-order RRE-Rev complexes or free LTRc, and 50% response RC50 values were determined with Prism by fitting the data to a sigmoidal inhibitory model: I−Imin=ImaxC/1+C/RC50 where I is the intensity of the band corresponding to LTRc or high-order RRE-Rev species at compound concentration C, Imax the best-fit value for maximum intensity, and Imin the minimum intensity obtained at the highest concentration of inhibitor. All EMSA experiments were repeated three times for each compound.

[2] = target: RRE subdomain IIB RNA hairpin IIBh; test: Fluorescence intensity binding to fluorescein-labelled IIBh hairpin; parameters: species or system HIV-1
From the text: We next determined whether the terphenyl molecules blocked the interaction between Rev34–50 and subdomain IIB by binding to the RNA and, if so, whether they recognized subdomain IIB in a manner similar to the Rev34–50 α-helix. We first evaluated subdomain IIB association by measuring changes in the fluorescence intensity of a IIBh RNA hairpin construct containing a fluorescein probe attached to unpaired loop IIB residue U23 (Fig. 1D)[21],[22]. […] However, there were significant differences among the compounds.
as §1

[3] = target: RRE subdomain IIB-Rev34–50; test: Fluorescence anisotropy displacement of the IIBh-Rev34–50 interaction; details: read-out: IC50, RRE subdomain IIB-Rev34–50, 60 nM IIBh, 10 nM frevp, 100 mM KCl, 20 mM NaCl, 2 mM MgCl2
Procedure: These experiments were conducted in a Victor X5 (PerkinElmer) plate reader as described before[7],[21], using 10 nM frevp and 60 nM IIBh. […] Each fluorescence anisotropy experiment was repeated at least two times.

[4] = system: LTRc, core region of the HIV-1 LTR promoter; test: EMSA of association to LTRc DNA; assay type: binding; details: 20 nM LTRc duplex; 10 mM HEPES pH 7.5, 300 mM KCl, 1 mM MgCl2, 0.5 mM EDTA
Procedure: as §3

[5] = Cellular viability (CellTiterGlo) in mock infected cells; assay type: cell-based; details: human, mock infected MT-2 cells
Procedure: as §2

[6] = low ionic strength, 10 mM sodium phosphate pH 6.6, uses Kd1
[7] = low ionic strength, 10 mM sodium phosphate pH 6.6, 0.1 mM EDTA, two-site model, read-out: Kd,1 first-site equilibrium dissociation constant (IIBh), Table S1
[8] = low ionic strength, 10 mM sodium phosphate pH 6.6, 0.1 mM EDTA, two-site model, read-out: Kd,2 second-site equilibrium dissociation constant (IIBh), Table S1

Row | Compound | Kd ([1]; 10 mM sodium phosphate pH 6.6, 0.1 mM EDTA, read-out: Kd (TARh), one-site or first-site Kd1) | Kd ([1]; higher ionic strength, 10 mM HEPES pH 7.5, 200 mM KCl, 2 mM MgCl2, read-out: Kd (TARh), Table S2) | EC50 (HIV-1) | IC50 (high-order RRE-Rev) | Kd ([2]; 10 mM sodium phosphate pH 6.6, 0.1 mM EDTA, two-site model, read-out: Kd (IIBh), first-site Kd1) | Kd ([2]; 10 mM sodium phosphate pH 6.6, 0.1 mM EDTA, two-site model, read-out: Kd (IIBh), second-site Kd2 (in brackets)) | Kd ([2]; 10-fold molar excess DNA duplex LTRd, 10 mM sodium phosphate pH 6.6, 0.1 mM EDTA, one-site fit, approximate, read-out: Kd (IIBh+LTRd)) | Kd ([2]; 10-fold molar excess LTRd, 10 mM HEPES pH 7.5, 200 mM KCl, 2 mM MgCl2, read-out: Kd (IIBh+LTRd), one-site or first-site Kd1, Table S2) | Kd ([2]; 10-fold molar excess tRNALys, 10 mM HEPES pH 7.5, 200 mM KCl, 2 mM MgCl2, one-site fit, approximate, read-out: Kd (IIBh+tRNA), Table S2) | Kd ([2]; 10-fold molar excess tRNALys, 10 mM sodium phosphate pH 6.6, 0.1 mM EDTA, one-site fit, approximate, read-out: Kd (IIBh+tRNA)) | Kd ([2]; higher ionic strength, 10 mM HEPES pH 7.5, 200 mM KCl, 2 mM MgCl2, read-out: Kd (IIBh), first-site Kd1, Table S2) | IIB-DNA spec., Kd(IIBh)/Kd(IIBh+LTRd) [2, 6] | IIB-tRNA spec., Kd(IIBh)/Kd(IIBh+tRNA) [2, 6] | IC50 [3] | association to LTRc (EMSA) [4] | CC50 at 48 h [5] | Kd [2, 7] | Kd [2, 8]
1 | CCc1cc(-c2cc(CCN)c(OC)cc2CCN)c(CC)cc1-c1cc(CCN)c(OC)cc1CCN [Compound 1b] | > 50 µM | > 50 µM | > 100 µM | > 50 µM | 0.51 µM | 21 µM | 6.5 µM | > 50 µM | > 50 µM | 8.7 µM | > 50 µM | 0.078 | 0.059 | > 100 µM | not detected | > 100 µM | – | –
2 | CCOc1cc(CCN)c(-c2cc(C)c(-c3cc(CCN)c(OCC)cc3CCN)cc2C)cc1CCN [Compound 1c] | – | – | > 100 µM | – | – | – | – | – | – | – | – | – | – | > 100 µM | – | > 100 µM | 0.19 µM | 74 µM
3 | COc1cc(CCCN)c(-c2cc(C)c(-c3cc(CCCN)c(OC)cc3CCCN)cc2C)cc1CCCN [Compound 2a] | – | – | > 100 µM | – | – | – | – | – | – | – | – | – | – | > 100 µM | – | > 100 µM | 0.67 µM | 25 µM
4 | CCc1cc(-c2cc(CCCN)c(OC)cc2CCCN)c(CC)cc1-c1cc(CCCN)c(OC)cc1CCCN [Compound 2b] | – | – | > 100 µM | – | – | – | – | – | – | – | – | – | – | > 100 µM | – | > 100 µM | 0.11 µM | 46 µM
5 | COc1ccc(-c2cc(C)c(-c3cc(CCN)c(OC)cc3CCN)cc2C)cc1CCN [Compound 3a] | – | – | 35.5 µM | – | – | – | – | – | – | – | – | – | – | > 100 µM | – | > 100 µM | 8.9 µM | 36 µM
6 | COc1ccc(-c2cc(C)c(-c3cc(CCN)ccc3CCN)cc2C)cc1CCN [Compound 3b] | – | – | > 100 µM | – | – | – | – | – | – | – | – | – | – | > 100 µM | – | > 100 µM | 5.5 µM | 22 µM
7 | Cc1cc(-c2cc(CCN)ccc2CCN)c(C)cc1-c1ccccc1CCN [Compound 4] | – | – | 50 to 100 µM | – | – | – | – | – | – | – | – | – | – | > 100 µM | – | > 100 µM | 3.7 µM | 33 µM

Reference: article PMC7188855, “Nucleic acid recognition and antiviral activity of 1,4-substituted terphenyl compounds mimicking all faces of the HIV-1 Rev protein positively-charged α-helix” (Scientific Reports, 2020)
